The record followed here is paper PMC6155437 (Molecules : A Journal of Synthetic Chemistry and Natural …, 2017).

This series concerns the target T1, CYP1A2 (Homo sapiens, UniProt P05177).
T1 construct: pooled human liver microsomes (0.2 mg/mL); tissue Corning Life Sciences; host or cells: pooled human liver microsomes (150 donors)
T1 sequence (P05177 1-516): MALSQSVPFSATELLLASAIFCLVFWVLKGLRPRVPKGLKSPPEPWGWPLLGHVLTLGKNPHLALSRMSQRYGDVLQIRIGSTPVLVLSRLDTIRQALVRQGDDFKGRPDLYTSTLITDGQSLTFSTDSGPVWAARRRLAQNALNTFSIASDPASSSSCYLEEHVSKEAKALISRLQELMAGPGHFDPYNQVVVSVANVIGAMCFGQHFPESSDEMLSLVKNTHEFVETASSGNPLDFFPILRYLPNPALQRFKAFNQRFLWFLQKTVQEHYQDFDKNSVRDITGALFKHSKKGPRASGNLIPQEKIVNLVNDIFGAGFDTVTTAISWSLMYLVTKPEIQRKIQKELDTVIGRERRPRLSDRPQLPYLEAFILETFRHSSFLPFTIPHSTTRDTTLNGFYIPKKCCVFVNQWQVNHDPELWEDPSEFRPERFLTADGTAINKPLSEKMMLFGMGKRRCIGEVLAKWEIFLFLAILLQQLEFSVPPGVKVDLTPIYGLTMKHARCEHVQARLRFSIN
Put plainly: CYP1A2 phenacetin O-deethylase inhibition in pooled human liver microsomes (substrate cocktail, LC-MS/MS). The class given is in vitro ADME. The settings on record: at 50 µM. The procedure:
After a 3-min pre-incubation at 37 °C, the reactions were initiated by addition of NADPH and incubation proceeded for 15 min at 37 °C in a shaking water bath. […] The incubation mixtures were centrifuged (13,000× g, 4 min, 4 °C). All assays were performed in triplicate and mean values were used in calculations.
Each reaction was initiated by adding the seven-CYP probe substrate cocktail.
The metabolites formed from CYP substrates were quantified simultaneously by a LC-MS/MS method described previously. The ESI source settings in positive-ion mode for metabolite ionization were: capillary voltage, 4200 V; vaporizer temperature, 350 °C; capillary temperature, 330 °C; sheath gas pressure, 35 psi; and auxiliary gas pressure, 15 psi. […] Analytical data were processed using Xcalibur software (version 2.1, Thermo Scientific).
The apparent kinetic parameters for inhibitory potential (Ki and kinact values) and inhibition mode were estimated from the fitted curves using the Enzyme Kinetics program (ver. 1.1; Systat Software Inc., San Jose, CA, USA).
(In general: Liver microsomes are a subcellular fraction often used to study metabolism.)

The structures appear in SMILES notation.

`O=C(c1cccc2ccccc12)c1cn(CCCCCF)c2ccccc12` [AM-2201, 1-(5-fluoropentyl-1H-indol-3-yl)-(naphthalene-1-yl)methanone]: the “inhibition of CYP1A2-mediated phenacetin O-deethylation” value is reported as “negligibly inhibited”.
